Measurements taken from US20100028427A1, “IMMEDIATE RELEASE FORMULATIONS OF 1-AMINOCYCLOHEXANE COMPOUNDS, MEMANTINE AND NERAMEXANE” (Forest Laboratories, Inc., priority 2004, published 2010).

Test: Solubility and permeability (Biopharmaceutical Classification System)
Format: physicochemical

SMILES: CC12CC3CC(C)(C1)CC(N)(C3)C2.Cl [Memantine HCl, 1-amino-3,5-dimethyladamantane hydrochloride]
- solubility: highly soluble
